The values that follow come from article PMC6188138, “Carnosol suppresses patient-derived gastric tumor growth by targeting RSK2” (Oncotarget, 2018).

This assay has as its target T1, RSK2 (Homo sapiens, UniProt P51812).
T1 construct: gene RPS6KA3
The experiment in a line: in vitro kinase assay with recombinant active RSK2 and ATF1 substrate (Western blot); supported by pull-down of recombinant RSK2 with carnosol-Sepharose 4B beads. Type of assay: biochemical. (In western blotting, separated proteins are transferred to a membrane and probed.)

T1 sequence (P51812 whole entry): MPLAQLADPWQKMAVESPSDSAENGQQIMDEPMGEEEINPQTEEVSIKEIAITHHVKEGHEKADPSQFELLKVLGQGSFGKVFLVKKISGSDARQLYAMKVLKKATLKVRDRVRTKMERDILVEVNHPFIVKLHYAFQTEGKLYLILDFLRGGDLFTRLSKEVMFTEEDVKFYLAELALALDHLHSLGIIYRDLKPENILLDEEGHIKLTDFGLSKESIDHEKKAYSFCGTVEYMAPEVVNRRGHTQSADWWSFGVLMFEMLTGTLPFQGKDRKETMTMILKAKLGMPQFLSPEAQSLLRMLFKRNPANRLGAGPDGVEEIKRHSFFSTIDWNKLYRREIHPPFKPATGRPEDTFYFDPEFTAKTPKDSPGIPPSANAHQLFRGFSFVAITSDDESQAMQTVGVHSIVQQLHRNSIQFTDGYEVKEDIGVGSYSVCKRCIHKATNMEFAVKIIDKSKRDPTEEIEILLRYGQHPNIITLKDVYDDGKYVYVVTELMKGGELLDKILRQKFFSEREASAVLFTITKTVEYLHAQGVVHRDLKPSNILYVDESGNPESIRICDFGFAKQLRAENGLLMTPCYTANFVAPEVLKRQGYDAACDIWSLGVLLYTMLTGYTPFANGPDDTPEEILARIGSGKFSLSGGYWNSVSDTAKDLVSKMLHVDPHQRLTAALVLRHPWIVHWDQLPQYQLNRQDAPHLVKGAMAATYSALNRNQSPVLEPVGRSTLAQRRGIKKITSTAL

As for `CC(C)c1cc2c(c(O)c1O)[C@@]13CCCC(C)(C)[C@@H]1C[C@@H]2OC3=O` [Carnosol], the concentration for half-maximal inhibition (IC50) is around 5.5 µM.

A word on the IC50: it is the point on the concentration scale where inhibition reaches its midpoint.
